Measured values: BindingDB's records for doi:10.1016/0922-4106(94)90075-2 (University of Pisa, 1994)

How the values were obtained:
[1] = target: Muscarinic acetylcholine receptor M3 (Homo sapiens, UniProt P20309)
[2] = target: T1, Muscarinic acetylcholine receptor M1 (Homo sapiens, UniProt P11229)
T1 sequence (P11229 whole entry): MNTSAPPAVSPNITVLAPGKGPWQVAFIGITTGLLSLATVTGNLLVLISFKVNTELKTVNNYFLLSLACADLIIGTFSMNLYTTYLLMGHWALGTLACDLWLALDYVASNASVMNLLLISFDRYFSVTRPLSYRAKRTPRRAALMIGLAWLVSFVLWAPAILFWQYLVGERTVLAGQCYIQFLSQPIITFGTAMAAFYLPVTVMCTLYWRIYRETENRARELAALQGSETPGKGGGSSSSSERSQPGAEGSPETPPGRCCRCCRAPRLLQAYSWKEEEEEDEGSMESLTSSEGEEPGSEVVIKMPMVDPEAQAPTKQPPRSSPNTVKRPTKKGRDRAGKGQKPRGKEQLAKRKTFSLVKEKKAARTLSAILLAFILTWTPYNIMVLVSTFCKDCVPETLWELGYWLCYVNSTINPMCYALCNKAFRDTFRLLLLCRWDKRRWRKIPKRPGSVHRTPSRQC

[3] = target: T2, Muscarinic acetylcholine receptor M4 (Homo sapiens, UniProt P08173)
T2 sequence (P08173 whole entry): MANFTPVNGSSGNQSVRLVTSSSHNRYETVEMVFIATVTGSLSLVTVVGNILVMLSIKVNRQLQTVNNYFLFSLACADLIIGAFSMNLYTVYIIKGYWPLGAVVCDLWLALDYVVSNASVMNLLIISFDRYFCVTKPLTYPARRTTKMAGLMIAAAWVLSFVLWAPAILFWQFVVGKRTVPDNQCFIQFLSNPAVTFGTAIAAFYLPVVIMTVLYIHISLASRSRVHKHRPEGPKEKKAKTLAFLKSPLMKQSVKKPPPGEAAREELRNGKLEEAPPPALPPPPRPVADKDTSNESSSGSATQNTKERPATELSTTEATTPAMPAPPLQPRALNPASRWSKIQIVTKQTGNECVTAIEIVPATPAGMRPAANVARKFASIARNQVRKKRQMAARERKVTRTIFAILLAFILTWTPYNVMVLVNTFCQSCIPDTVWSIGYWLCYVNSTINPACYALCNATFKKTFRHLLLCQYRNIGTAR

[4] = target: T3, Muscarinic acetylcholine receptor M5 (Homo sapiens, UniProt P08912)
T3 sequence (P08912 whole entry): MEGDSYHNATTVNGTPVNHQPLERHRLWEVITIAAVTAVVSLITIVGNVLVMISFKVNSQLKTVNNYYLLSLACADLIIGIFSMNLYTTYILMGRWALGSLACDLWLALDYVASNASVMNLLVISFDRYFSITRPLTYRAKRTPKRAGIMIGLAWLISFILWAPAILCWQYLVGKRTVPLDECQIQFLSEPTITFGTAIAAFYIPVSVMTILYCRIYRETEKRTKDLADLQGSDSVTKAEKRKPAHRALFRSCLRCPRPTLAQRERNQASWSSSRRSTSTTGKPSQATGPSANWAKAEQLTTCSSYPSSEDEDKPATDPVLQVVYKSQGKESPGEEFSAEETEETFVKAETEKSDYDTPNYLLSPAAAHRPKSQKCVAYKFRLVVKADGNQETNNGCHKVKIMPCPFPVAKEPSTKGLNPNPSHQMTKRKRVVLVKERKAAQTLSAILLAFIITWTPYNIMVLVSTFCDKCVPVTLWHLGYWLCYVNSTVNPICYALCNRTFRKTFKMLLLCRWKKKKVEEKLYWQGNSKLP

Muscarinic acetylcholine receptor M3, sequence (P20309 whole entry): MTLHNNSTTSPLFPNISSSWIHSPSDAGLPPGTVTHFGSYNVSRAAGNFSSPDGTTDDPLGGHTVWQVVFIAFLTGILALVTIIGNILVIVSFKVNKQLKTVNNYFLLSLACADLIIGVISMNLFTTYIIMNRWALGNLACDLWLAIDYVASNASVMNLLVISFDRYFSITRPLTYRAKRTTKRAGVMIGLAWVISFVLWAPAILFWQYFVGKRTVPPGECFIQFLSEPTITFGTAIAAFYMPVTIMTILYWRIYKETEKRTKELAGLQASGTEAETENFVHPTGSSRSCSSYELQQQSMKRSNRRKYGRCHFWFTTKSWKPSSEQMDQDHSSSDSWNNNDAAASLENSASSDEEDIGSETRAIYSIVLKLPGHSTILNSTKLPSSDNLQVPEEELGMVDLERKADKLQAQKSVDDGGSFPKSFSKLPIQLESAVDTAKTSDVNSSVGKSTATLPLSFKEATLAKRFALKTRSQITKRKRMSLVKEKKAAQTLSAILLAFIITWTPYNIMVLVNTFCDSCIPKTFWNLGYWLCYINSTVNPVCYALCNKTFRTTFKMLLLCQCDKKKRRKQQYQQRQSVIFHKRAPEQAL

SMILES | Ki [1] [nM] | Ki [2] [nM] | Ki [3] [nM] | Ki [4] [nM]
CN(CCCCCCCCN(C)CCCCCCN(CC(=O)N1c2ccccc2C(=O)Nc2cccnc21)CC(=O)N1c2ccccc2C(=O)Nc2cccnc21)CCCCCCNCC(=O)N1c2ccccc2C(=O)Nc2cccnc21 [NSC_132947] | 38.2 | 1.58 | 6.41 | 33.9
COc1ccccc1CNCCCCCCNCCCCCCCCNCCCCCCNCc1ccccc1OC [METHOCTRAMINE] | 277 |  | 38 | 313
